Data reported in US11744841B2, “Use of trezastilbenoside in manufacture of product for treating and/or preventing disease of respiratory system” (KPC PHARMACEUTICALS, INC., priority 2019, dated 2023).
Where a name gives a salt, the structure may show the parent alone.

How the values were obtained:
[1] = tested on: cough response of mice induced by concentrated ammonia; experiment: Cough response of mice induced by concentrated ammonia (antitussive effects); format: in vivo; details: n = 10; for Number of coughs per 2 min: 25% ammonia spray; for Latency: cough latency, 25% ammonia spray 15 s, 1 h after last dose
Description: 2.1 Effects on the Cough Response of Mice Induced by Concentrated Ammonia (Antitussive Effects)
40 mice were taken and randomly divided into four groups, namely a negative control group (0.5% of CMC-Na: prepared before tests by weighting 5 g of CMC-Na into a beaker, adding 800 mL pure water thereto, stirring, heating, boiling, and cooling down, then using a measuring cylinder to adjust the volume to 1000 mL, to obtain the transparent, viscous liquid with a concentration of 0.5% for the preparation of test samples and solvent control. Such liquid prepared once and can be used for 5-7 days); a positive control group of codeine phosphate tablets at 60 mg/kg; Trezastilbenoside high dose (300 mg/kg) group; and Trezastilbenoside low dose (150 mg/kg) group. For each administration group, 0.5% CMC-Na was used for dissolving and diluting to a corresponding concentration. After the mice were accilimatized for 3 days, they were administered intragastrically once a day continuously for 7 days. The administration volume was 20 mL/kg, and 1 h after the last administration, the mice were placed one by one into a closed and dry container where the mist of 25% of concentrated ammonia was introduced into by spraying at constant pressure for 15 seconds to induce cough, then the cough latency and the number of coughs in mice during the 2-minute period were recorded thought observation.
(§1) Experimental data were analyzed using SPSS17.0 software, and expressed as means±standard deviations (x±SD). When the homogeneity of variance was complied, LSD test was used to make comparison between groups; and when the homogeneity of variance was not complied, Dunnett's T3 test was used to make comparison between groups. A P-value less than 0.05 means a statistical significance, and a P-value less than 0.01 means a significant statistical significance.

[2] = tested on: cough in guinea pigs induced by citric acid spray; experiment: Cough in guinea pigs induced by citric acid spray (antitussive effects); format: in vivo; details: n = 10; for Number of coughs per 5 min: 17.5% citric acid spray; for Latency: cough latency, 17.5% citric acid spray 1 min, latency capped at 5 min
Description: 2.2 Effects on the Cough in Guinea Pigs Induced by Citric Acid Spray (Antitussive Effects)
Healthy and sensitive guinea pigs (a pre-selection was carried out one day before the experiments, to exclude the guinea pigs which coughed less than 10 times during the five-minute period), having body weight of 250-280 g, male and female each in half were taken, and randomly divided into groups as described in 2.1. After the guinea pigs were acclimatized for 3 days, they were administered intragastrically once a day continuously for 5 days, and at the fifth day 1 hour after the administration, the guinea pigs were placed inside a 3 L sealed glass bell jar where 17.5% citric acid was sprayed into at constant pressure for 1 minute by an ultrasonic nebulizer. The cough latency and the number of coughs of the guinea pigs during the 5-minute period were recorded though observation. For guinea pigs whose latency exceeded 5 min, it was recorded as 5 min.
as §1

[3] = tested on: excretion of phenol red from the mouse trachea; experiment: Excretion amount of phenol red from the mouse trachea (expectorant effects); format: in vivo, mice; details: trachea wash in 2 mL 5% NaHCO3, absorbance at 546 nm, n = 10
Description: 2.3 Effects on the Excretion Amount of Phenol Red from the Mouse Trachea (Expectorant Effects)
40 mice were taken and randomly divided into 4 groups as described in 2.1. The positive control group received ambroxol hydrochloride tablets at 20 mg/kg. After the mice were acclimatized for 3 days, they were administered intragastrically once a day continuously for 7 days. The administration volume was 20 mL/kg, and 30 min after the last administration, each mouse was intraperitoneally injected with 5% phenol red solution at 0.2 mL/20 g, sacrificed after 30 min, fixed supine, neck straightened, surrounding connective tissue stripped to expose the trachea, and dissected to separate out a section of trachea that was from below the thyroid cartilage to the bifurcation of the trachea. Each trachea section was put into a test tube pre-filled with 2 mL of 5% NaHCO3 solution, ultrasonically washed for 15 min to release the tracheal phenol red out from the trachea completely, and centrifuged at 1000 r/min for 15 min to obtain a supernatant. The absorbance values of the supernatant at 546 nm were measured by an enzyme reader, and converted into the phenol red content by being compared with standard curves of phenol red.
as §1

[4] = tested on: allergic asthma in guinea pigs; experiment: Allergic asthma in guinea pigs (egg protein sensitisation and spray); format: in vivo; details: 1% egg protein spray, capped at 6 min
Description: 2.4 Effects on the Allergic Asthma in Guinea Pigs (Effects for Relieving Asthma)
40 guinea pigs, male and female each in half, having body weight of 250-280 g, were randomly divided into 4 groups as described in 2.1. The positive control group received aminophylline tablets at 100 mg/kg. After the guinea pigs were acclimatized for 3 days, they received 10% fresh egg protein solution at 10 mL/kg through an intraperitoneal injection. From the 15th day, it began to administer intragastrically to each group at 10 mL/kg. The negative control group received equal volume of 0.5% CMC-Na once per day continuously for 7 days. From the 17th day, it began to let the guinea pigs inhale 1% egg protein solution, by spraying through an asthma-inducing, for 15 min to elicit at 1-day intervals totally for 3 times. After the last irritation, the asthma latency in the guinea pigs, that is, the time from the beginning of spray to asthma attacks (cough, dyspnea, restlessness, convulsions, falling down or death), was recorded. For the guinea pigs which had not appeared asthma attack after 6 min, their latency was taken as 6 min.
as §1

[5] = tested on: ears swelling of mice induced by xylene; experiment: Ears swelling of mice induced by xylene (anti-inflammatory effects); format: in vivo; details: for Swelling degree: xylene 20 μL on right ear, 30 min, weight difference of 6 mm ear pieces
Description: 2.5 Effects on Ears Swelling of Mice Induced by Xylene (Anti-Inflammatory Effects)
40 mice were taken and randomly divided into 4 groups of 10 mice each as described in 2.1, in which intragastric administration was conducted at 10 mL/kg, the positive control group received dexamethasone acetate tablets at 5 mg/kg, and the negative control group received equal volume of 0.5% CMC-Na, once per day continuously for 7 days. At the night before the experiments, the mice were fasted but had access to water for 12 h. At the 7th day, 30 min after the administration, the mice were evenly smeared with the inflammatory agent xylene (20 μL for each mouse) at the front and back sides of right ears to cause inflammation, and killed by cervical dislocation after 30 min, with their both ears cut along the baseline of the auricle. The ear pieces of the same part of the both ears were punched out with a hole punch of 6 mm diameter, and weighted by an analytical balance. The difference between the weights of the two ears was the swelling degree (mg), and the swelling inhibition rate (%) was calculated. Swelling inhibition rate=(Average swelling degree of the control group−Average swelling degree of the administration group)/Average swelling degree of the control group 2.6 Statistical Methods:
as §1

[6] = safety researches, background statement; cited from earlier work
[7] = safety researches, background statement; cited from earlier work; remark: listed apart in the source
[8] = 60 mg/kg intragastric once a day for 7 days
[9] = 60 mg/kg intragastric once a day for 5 days
[10] = 150 mg/kg intragastric once a day for 7 days
[11] = 300 mg/kg intragastric once a day for 7 days
[12] = 150 mg/kg intragastric once a day for 5 days
[13] = 300 mg/kg intragastric once a day for 5 days
[14] = 150 mg/kg intragastric once per day for 7 days
[15] = 300 mg/kg intragastric once per day for 7 days

COc1ccc2c3c1O[C@H]1[C@@H](O)C=C[C@H]4[C@@H](C2)N(C)CC[C@@]341 [Codeine phosphate tablets, Codeine phosphate, reference compound]
Number of coughs per 2 min [1, 8]: 15.13 ± 7.83 | Latency [1, 8]: 56.23 ± 16.46 s | Number of coughs per 5 min [2, 9]: 7.83 ± 3.83 | Latency [2, 9]: 130.48 ± 59.34 s

OC[C@H]1O[C@@H](Oc2cc(/C=C/c3cc(O)cc(O)c3)ccc2O)[C@H](O)[C@@H](O)[C@@H]1O [Trezastilbenoside]
Number of coughs per 2 min [1, 10]: 25.88 ± 9.25 | Number of coughs per 2 min [1, 11]: 19.63 ± 10.27 | Latency [1, 10]: 41.23 ± 13.67 s | Latency [1, 11]: 48.56 ± 16.53 s | Number of coughs per 5 min [2, 12]: 13.88 ± 5.25 | Number of coughs per 5 min [2, 13]: 9.63 ± 3.20 | Latency [2, 12]: 104.35 ± 45.23 s | Latency [2, 13]: 116.78 ± 53.96 s | Phenol red concentration [3, 10]: 3.28 ± 1.20 µg/mL | Phenol red concentration [3, 11]: 3.88 ± 1.43 µg/mL | Latency [4, 14]: 69.28 ± 21.20 s | Latency [4, 15]: 83.68 ± 36.13 s | Swelling degree [5, 14]: 3.12 ± 2.52 mg | Swelling degree [5, 15]: 2.21 ± 1.45 mg | inhibition at 150 mg/kg ([5]; Mus musculus, po, 168 h, 150 mg/kg intragastric once per day for 7 days, relative to average swelling degree of control group, read-out: Swelling inhibition rate (%)): 14.3% | inhibition at 300 mg/kg ([5]; Mus musculus, po, 168 h, 300 mg/kg intragastric once per day for 7 days, relative to average swelling degree of control group, read-out: Swelling inhibition rate (%)): 39.3% | Toxic side reactions and death in acute toxicity tests [6]: no toxic side reactions and death occurred | Chromosome aberrations or mutagenesis in the genetic test [7]: no chromosome aberrations or mutagenesis were found

Cn1c(=O)c2[nH]cnc2n(C)c1=O [Aminophylline tablet, Aminophylline, reference compound]
Latency ([4]; 100 mg/kg intragastric once per day for 7 days): 94.23 ± 31.55 s

CC(=O)OCC(=O)[C@@]1(O)[C@H](C)C[C@H]2[C@@H]3CCC4=CC(=O)C=C[C@]4(C)[C@@]3(F)[C@@H](O)C[C@@]21C [Dexamethasone acetate tablet, Dexamethasone acetate, reference compound]
Swelling degree ([5]; 5 mg/kg intragastric once per day for 7 days): 1.24 ± 0.67 mg | inhibition at 5 mg/kg ([5]; Mus musculus, po, 168 h, 5 mg/kg intragastric once per day for 7 days, relative to average swelling degree of control group, read-out: Swelling inhibition rate (%)): 65.9%

Nc1c(Br)cc(Br)cc1CN[C@H]1CC[C@H](O)CC1 [Ambroxol hydrochloride tablet, Ambroxol hydrochloride, reference compound]
Phenol red concentration ([3]; ambroxol hydrochloride 20 mg/kg (positive control) intragastric once a day for 7 days): 4.23 ± 1.34 µg/mL
